The values below are quoted from earlier work in patent US20210319872A1, “DRUG AND DEVICE COMBINATION PRODUCTS WITH IMPROVED SAFETY AND EFFICACY PROFILES” (priority 2016, published 2021).

Read-outs that look alike come from different tables or passages of the source.

The mark [1] stands for this setting: chronic hepatitis C-associated thrombocytopenia.
Where [2] appears, read: chronic idiopathic thrombocytopenic purpura.

Regarding Nesiritide (Natrecor), where the note is “in vivo”, the “Dizziness (incidence)” value is reported as “Neurologic: Dizziness (2%), Headache (7%)”; the “Headache (incidence)” value was “Neurologic: Dizziness (2%), Headache (7%)”; the “Hypotension (incidence)” value is listed as “Cardiovascular: Hypotension (4% to 17%)”; the “Nausea (incidence)” value was “Gastrointestinal: Nausea (3%)”. Where the note is “in vivo”, the “Serum creatinine raised (incidence)” value was “Renal: Serum creatinine raised (17% to 31.4%)”.
On to `COC(=O)C1=C(C)NC(C)=C(C(=O)OCC(C)C)C1c1ccccc1[N+](=O)[O-]` (stereo not drawn) [Nisoldipine (Sular)], for which, under “in vivo”, the Dizziness result is “Neurologic: Dizziness (5%), Headache (22%)”; the Headache entry was “Neurologic: Dizziness (5%), Headache (22%)”; the Palpitations entry is “Cardiovascular: Palpitations (3%), Peripheral edema (22%),”; the Peripheral edema entry was “Cardiovascular: Palpitations (3%), Peripheral edema (22%),”. Moreover, under “in vivo”, the Pharyngitis entry is listed as “Respiratory: Pharyngitis (5%), Sinusitis”; the “Serious side effects, listed without incidence or only as rare” value is listed as “Cardiovascular: Myocardial infarction”; the Vasodilatation entry is given as “Vasodilatation (4%)”.
As to `O=C1Nc2ccc(Cl)cc2C(c2ccccc2Cl)=NC1O` (stereo not drawn) [Lorazepam (Ativan)], where the note is “in vivo”, the Acidosis entry is given as “Endocrine metabolic: Acidosis (less than 1%)”; the Asthenia result is “Neurologic: Asthenia (4.2%), Dizziness (6.9%), Sedated (15.9%),”; the “Common side effects, listed without incidence” value was “Psychiatric: Depression”; the Dizziness result is given as “Neurologic: Asthenia (4.2%), Dizziness (6.9%), Sedated (15.9%),”. Also, for the setting “in vivo”, the Sedated result was “Neurologic: Asthenia (4.2%), Dizziness (6.9%), Sedated (15.9%),”; the “Serious side effects, listed without incidence or only as rare” value was “Psychiatric: Delirium”; the Unsteadiness present entry is reported as “Unsteadiness present (3.4%)”.
As to `CC1=NN(c2ccc(C)c(C)c2)C(=O)/C1=N\Nc1cccc(-c2cccc(C(=O)O)c2)c1O` [Promacta], the AST/SGOT level raised (Adult) is 4%. In addition, the Headache entry (Chronic hepatitis C-associated thrombocytopenia and aplastic anemia) was “thrombocytopenia and aplastic anemia, 21%; chronic idiopathic”. Further, under “aplastic anemia”, the Cough result is “Respiratory: Cough (Aplastic anemia, 23%; chronic ITP, pediatric,”; the Diarrhea was 21%; the Fever is listed as 14%; the Nausea is recorded as 33%), Pain in throat (Chronic idiopathic thrombocytopenic. Moreover, the Pain in throat (aplastic anemia) was 14%. For the setting “chronic ITP, pediatric”, the ALT/SGPT level raised is 6% and the Cough is 9%. Also, under setting [1], the Anemia entry is given as “thrombocytopenia, 40%)”; the Diarrhea result is reported as “thrombocytopenia, 19%; chronic idiopathic thrombocytopenic”; the Fever is 30%; the Liver failure entry is recorded as “associated thrombocytopenia, 7%), Liver function tests abnormal”. Moreover, under setting [1], the Nausea result is “(Chronic hepatitis C-associated thrombocytopenia, 19%; chronic”; the Portal vein thrombosis result is listed as “C-associated thrombocytopenia, 1%), Thrombosis (chronic”; the Thrombosis result was “hepatitis C-associated thrombocytopenia, 3%)”. For the same compound, under setting [2], the Fatigue result is listed as “purpura, 4%), Fever (Chronic hepatitis C-associated”; the Headache entry is listed as “thrombocytopenic purpura, 10%)”; the Pain in throat was 4%. The Diarrhea (chronic idiopathic thrombocytopenic purpura, adults) is 9%. The Diarrhea (chronic idiopathic thrombocytopenic purpura, pediatric) was 5%. Also, under “in vivo”, the Epistaxis is 13%, the “Liver function tests abnormal” value is recorded as “(11%)”, the Pharyngitis was 4% and the “Urinary tract infectious disease” value is listed as “Renal: Urinary tract infectious disease (5%)”. Also, the Vomiting result (in vivo) is “Vomiting (6%)”. In addition, where the note is “listed without frequency”, the “Serious side effect, Hematologic” value is “Hematologic: Bleeding, Portal vein thrombosis (chronic hepatitis”; the “Serious side effect, Hepatic” value is given as “Hepatic: Hepatotoxicity, Liver failure (chronic hepatitis C-”; the “Serious side effect, Renal” value is “Renal: Acute renal failure”. Besides, the AST/SGOT level raised (pediatric) is listed as 5%.
As for `NS(=O)(=O)c1cc(C2(O)NC(=O)c3ccccc32)ccc1Cl` (stereo not drawn) [Chlorthalidone (Hygroton)], where the note is “in vivo”, the “Common side effect listed (incidence not given)” value is given as “Endocrine metabolic: Hyperuricemia”.
For `N#Cc1ccc2[nH]cc(CCCCN3CCN(c4ccc5oc(C(N)=O)cc5c4)CC3)c2c1` [Viibryd], the Serotonin syndrome (in vivo) is 0.1%. Further, for the setting “listed without frequency”, the “Serious side effect, Other” value was “Drug withdrawal”.
For `C[C@@H]1CCN(C(=O)CC#N)C[C@@H]1N(C)c1ncnc2[nH]ccc12` [Xeljanz (Jak Compounds)], under “in vivo”, the Decreased lymphocyte count entry is given as “Hematologic: Anemia, Decreased lymphocyte count (0.04%),”; the Headache result is listed as “Neurologic: Headache (3.4% to 4.3%)”; the “Increased HDL level” value is on record as “Endocrine metabolic: Increased HDL level (10% to 12%), Raised”; the Infectious disease result is “Immunologic: Infectious disease (20% to 22%), Opportunistic”. In addition, where the note is “in vivo”, the Nasopharyngitis entry was “Respiratory: Nasopharyngitis (2.8% to 3.8%), Upper respiratory”; the Neutropenia result is recorded as “Neutropenia (0.07%)”; the “Post-transplant lymphoproliferative disorder, Epstein Barr virus associated” value is “Barr virus associated (2.3%), Tuberculosis”; the “Raised low density lipoprotein cholesterol” value is listed as “low density lipoprotein cholesterol (15% to 19%)”. Also, under “in vivo”, the “Serious side effect, Dermatologic” value was “Dermatologic: Skin cancer, Non-melanoma”; the “Serious side effect, Gastrointestinal” value is recorded as “Gastrointestinal: Gastrointestinal perforation”; the “Serious side effect, Hematologic” value is recorded as “Hematologic: Anemia, Decreased lymphocyte count (0.04%),”; the “Serious side effect, Hepatic” value was “Hepatic: Injury of liver”. Under “in vivo”, the “Serious side effect, Other” value is listed as “Other: Cancer”; the Upper respiratory infection entry is given as “infection (3.8% to 4.5%)”; the “Urinary tract infectious disease” value is “Renal: Urinary tract infectious disease (2%)”.
Turning to `CC1Cc2ccccc2N1NC(=O)c1ccc(Cl)c(S(N)(=O)=O)c1` (stereo not drawn) [Indapamide (Lozol)], for the setting “in vivo”, the “Dizziness (incidence)” value is given as “Neurologic: Asthenia, Dizziness (Greater than or equal to 5%),”; the “Headache (incidence)” value is given as “Headache (Greater than or equal to 5%), Lethargy, Numbness”; the “Hypokalemia (incidence)” value is listed as “Endocrine metabolic: Hypokalemia (3% to 7%)”.
`CN(CCOc1ccc(NS(C)(=O)=O)cc1)CCc1ccc(NS(C)(=O)=O)cc1` [Tikosyn]: under “in vivo”, the Chest pain result is listed as “Cardiovascular: Chest pain (10%)”; the Dizziness result is given as “Neurologic: Dizziness (8%), Headache (11%)”; the Headache entry is given as “Neurologic: Dizziness (8%), Headache (11%)”; the Heart block result is “Cardiovascular: Heart block (up to 1.2%), Prolonged QT interval,”. In addition, where the note is “in vivo”, the Torsades de pointes result is “Torsades de pointes (0.8%), Ventricular arrhythmia (up to 14.5%),”; the Ventricular arrhythmia result is “Torsades de pointes (0.8%), Ventricular arrhythmia (up to 14.5%),”; the Ventricular tachycardia is on record as not above 12.4%). Where the note is “listed without frequency”, the “Serious side effect, Cardiovascular” value is “Cardiovascular: Heart block (up to 1.2%), Prolonged QT interval,”.
